Data published in ChEMBL document CHEMBL3886280, “Nicotinic receptor compounds” (2015).

Molecular target: Neuronal acetylcholine receptor subunit alpha-7 (Rattus norvegicus, UniProt Q05941)
Assay: Inhibition Assay: Compounds ([…]) were also evaluated for inhibition of binding to a7 nAChR using [125I]iodoMLA as previously reported in Carroll et al. The binding assays were conducted and the Ki values calculated as described in Carroll, F. I. et al., "Synthesis, nicotinic acetylcholine receptor binding, and antinociceptive properties of 2-exo-2-(2',3'-disubstituted 5'-pyridinyl)-7- …

Chain of Neuronal acetylcholine receptor subunit alpha-7 (Q05941 whole entry): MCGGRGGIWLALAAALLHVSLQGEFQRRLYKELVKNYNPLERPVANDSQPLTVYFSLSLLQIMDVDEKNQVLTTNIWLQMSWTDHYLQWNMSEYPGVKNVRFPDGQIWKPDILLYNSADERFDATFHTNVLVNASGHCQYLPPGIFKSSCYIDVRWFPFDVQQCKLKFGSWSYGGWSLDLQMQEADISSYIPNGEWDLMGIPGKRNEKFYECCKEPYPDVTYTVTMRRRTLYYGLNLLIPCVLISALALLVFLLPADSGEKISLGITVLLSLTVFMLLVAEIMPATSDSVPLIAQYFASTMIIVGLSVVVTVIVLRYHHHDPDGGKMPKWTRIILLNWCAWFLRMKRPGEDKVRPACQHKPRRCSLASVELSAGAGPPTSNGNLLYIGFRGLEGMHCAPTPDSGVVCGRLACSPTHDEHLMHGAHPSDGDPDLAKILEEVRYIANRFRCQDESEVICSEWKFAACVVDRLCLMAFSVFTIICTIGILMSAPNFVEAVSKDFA

| SMILES | Ki |
| --- | --- |
| Fc1ncc(C2CC3CCC2N3)cc1-c1ccccc1 (racemic) | > 2000 nM |
| Fc1ncc(C2CC3CCC2N3)cc1-c1cccc(Cl)c1 (configuration not stated) | > 2000 nM |
